Strand notation (5' to 3'): a small letter for the sugar, then the base; units joined by * are phosphorothioate-linked, units joined directly phosphodiester-linked; [ ] holds rarer units or linkages, { } end groups; capitals alone tell only the bases. k = constrained ethyl (cEt); [5mC] = 5-methylcytosine; d = 2'-deoxy (DNA)
Legend:
human SMAD7 mRNA [1] = assay: Antisense inhibition of human SMAD7 mRNA expression in Hep3B cells by 3-10-3 cEt gapmers, 10,000 nM, electroporation (Example 2); type: cell-based; conditions: Hep3B cells, electroporation with 10,000 nM antisense oligonucleotide, approximately 24 hours; for % inhibition of SMAD7 mRNA expression: primer probe set RTS5062, relative to untreated control cells; for % Inhibition: SMAD7 mRNA by RT-PCR (RTS5062), relative to untreated control cells
Method in brief: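 Hep3B cells (20,000/well) were electroporated with 10,000 nM 3-10-3 cEt gapmer (16-mer, phosphorothioate, 5-methylcytosines) and harvested after about 24 h. SMAD7 mRNA quantified by RT-qPCR with primer probe set RTS5062, normalized to total RNA by RiboGreen; percent inhibition relative to untreated cells.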

human SMAD7 mRNA [2] = assay: Dose-dependent inhibition of human SMAD7 mRNA expression in Hep3B cells (Example 3, Study 1 and 2); type: cell-based; conditions: electroporation; for % inhibition of SMAD7 mRNA expression: approximately 16 hours; for IC50: Study 2 (740-20000 nM)
Method: The antisense oligonucleotides were tested in a series of experiments that had similar culture conditions as described below.
(§1) Cells were plated at a density of 20,000 cells per well and transfected using electroporation with 0.31 μM, 1.25 μM, 5.00 μM, or 20.00 μM concentrations of antisense oligonucleotide, as specified in the Tables below. ION 483663 was included in the assays for comparison. After a treatment period of approximately 16 hours, RNA was isolated from the cells and SMAD7 mRNA levels were measured by quantitative real-time PCR. Primer probe set RTS5062 was used to measure human SMAD7 mRNA levels. SMAD7 mRNA levels were adjusted according to total RNA content, as measured by RIBOGREEN®. Results are presented as percent inhibition of SMAD7 mRNA expression, relative to untreated control cells.
The half maximal inhibitory concentration (IC50) of each oligonucleotide is also presented.
as §1, with “0.74” for “0.31”, “2.22” for “1.25”, “6.67” for “5.00”, “below.” for “below. ION 483663 was included in the assays for comparison.”

[3] = 740 nM, Study 2, relative to untreated control cells

Row | Substance | % inhibition of SMAD7 mRNA expression (human SMAD7 mRNA [1]) [%] | % inhibition of SMAD7 mRNA expression (human SMAD7 mRNA [2]; [3]) [%] | % inhibition of SMAD7 mRNA expression (human SMAD7 mRNA [2]; 2220 nM, Study 2) [%] | % inhibition of SMAD7 mRNA expression (human SMAD7 mRNA [2]; 6670.0 nM, Study 2) [%] | % inhibition of SMAD7 mRNA expression (human SMAD7 mRNA [2]; 20000.0 nM, Study 2) [%] | IC50 (human SMAD7 mRNA [2]) [µM] | % Inhibition (human SMAD7 mRNA [1]) [%]
1 | 799402 (antisense kG*kG*kT*d[5mC]*dA*d[5mC]*dT*dG*dT*dT*d[5mC]*dT*d[5mC]*kT*k[5mC]*kT) [compound 799402] | 66 | 0 | 3 | 13 | 50 | 10 | –
2 | 799404 (antisense kG*kG*kA*dA*d[5mC]*dA*dT*dT*dT*dA*d[5mC]*d[5mC]*d[5mC]*k[5mC]*kT*kG) [compound 799404] | 68 | 15 | 39 | 42 | 59 | 2 | –
3 | 799406 (antisense kG*kG*kG*dA*dA*d[5mC]*dA*dT*dG*dG*d[5mC]*d[5mC]*dT*kT*kT*k[5mC]) [compound 799406] | 65 | 30 | 51 | 77 | 84 | 3 | –
4 | 799410 (antisense kT*k[5mC]*kT*dG*dT*dT*dT*dA*d[5mC]*dA*d[5mC]*dA*d[5mC]*kA*kT*kT) [compound 799410] | – | 26 | 42 | 64 | 74 | 2 | 79
5 | 799412 (antisense kT*kT*k[5mC]*dT*dT*dA*d[5mC]*dA*d[5mC]*dA*dG*d[5mC]*dA*kG*k[5mC]*kG) [compound 799412] | – | 35 | 51 | 67 | 65 | 4 | 60
6 | 799429 (antisense k[5mC]*kA*k[5mC]*dA*dA*dG*dT*d[5mC]*dA*d[5mC]*dA*dA*d[5mC]*kT*kG*kG) [compound 799429] | – | 24 | 50 | 60 | 63 | 7 | 74
7 | 799467 (antisense kG*k[5mC]*kA*dG*dA*d[5mC]*dA*dG*dA*dA*dG*d[5mC]*dT*k[5mC]*kT*kA) [compound 799467] | – | 4 | 27 | 65 | 57 | > 20 | 69
8 | 799471 (antisense k[5mC]*kA*k[5mC]*dA*dG*dA*dA*dA*dA*dG*d[5mC]*dT*d[5mC]*k[5mC]*kG*k[5mC]) [compound 799471] | – | 0 | 9 | 14 | 46 | 5 | 71
9 | 799486 (antisense k[5mC]*kA*kT*dA*dA*dT*dG*dA*d[5mC]*dT*dT*dA*dT*k[5mC]*k[5mC]*kA) [compound 799486] | – | 20 | 17 | 57 | 88 | 11 | 52
10 | 799496 (antisense kG*kG*kG*dT*dG*dA*dG*dG*dT*dG*dG*d[5mC]*dT*kG*k[5mC]*kG) [compound 799496] | 72 | 3 | 12 | 34 | 69 | 3 | –
11 | 799509 (antisense kA*kG*kA*dA*dA*d[5mC]*dA*dG*dT*d[5mC]*dT*d[5mC]*d[5mC]*kA*k[5mC]*kA) [compound 799509] | – | 21 | 54 | 69 | 87 | 12 | 57
